Measured values as given in patent US3992371A, “Penicillins substituted with heterocyclic and substituted phenyl groups” (Sumitomo Chemical Company, Limited, priority 1973, dated 1976).
≈ marks a conversion by molar mass, not a printed value.

Legend:
[1] = test system: Pseudomonas; conditions: background statement; cited from earlier work
[2] = test system: gram-positive and gram-negative bacteria; conditions: background statement; cited from earlier work
[3] = test system: Proteus vulgaris HV19; experiment: Minimal inhibitory concentration, agar dilution method; format: cell-based
[4] = test system: Proteus miravilis GN2425; experiment: as above; format: cell-based
[5] = test system: Pseudomonas aeruginosa 104; experiment: as above; format: cell-based
Source text: (§1) When determined according to the agar dilution method, the penicillins (I) afford the minimal inhibitory concentrations against test microorganisms as shown in Table 2.

[6] = test system: Staphylococcus aureus 209P; experiment: as above; format: cell-based
Source text: as §1

[7] = test system: Klebsiella pneumoniae PCI602; experiment: as above; format: cell-based
Source text: as §1

[8] = test system: Escherichia coli NIHJ; experiment: as above; format: cell-based
Source text: as §1

6(α-amino-thienylacetamido)penicillanic acid
antimicrobial activity against Pseudomonas [1]: do not exert any appreciable antimicrobial activity against Pseudomonas
inhibition of the growth of gram-positive and gram-negative bacteria [2]: inhibit the growth of various gram-positive and gram-negative bacteria

6-(α-amino-isothiazolylacetamido)penicillanic acid
antimicrobial activity against Pseudomonas [1]: do not exert any appreciable antimicrobial activity against Pseudomonas
inhibition of the growth of gram-positive and gram-negative bacteria [2]: inhibit the growth of various gram-positive and gram-negative bacteria

CC1(C)S[C@@H]2C(NC(=O)C(N)c3ccc(O)cc3)C(=O)N2[C@H]1C(=O)O (stereo partly drawn) [Amoxycillin, 6-(α-amino-p-hydroxyphenylacetamido)penicillanic acid]
antimicrobial activity against Pseudomonas [1]: do not exert any appreciable antimicrobial activity against Pseudomonas
inhibition of the growth of gram-positive and gram-negative bacteria [2]: inhibit the growth of various gram-positive and gram-negative bacteria

COc1ccc(C(NC(=O)c2cnc3cn[nH]c3c2O)C(=O)NC2C(=O)N3C2SC(C)(C)C3C(=O)O)cc1 (stereo not drawn) [Example 34]
MIC [3]: 0.1 µg/mL (≈ 0.185 µM)
MIC [4]: 6.25 µg/mL (≈ 11.6 µM)
MIC [5]: 3.13 µg/mL (≈ 5.79 µM)
MIC [6]: 0.78 µg/mL (≈ 1.44 µM)
MIC [7]: 12.5 µg/mL (≈ 23.1 µM)
MIC [8]: 3.13 µg/mL (≈ 5.79 µM)

Cc1nc(C)c2ncc(C(=O)NC(C(=O)NC3C(=O)N4C3SC(C)(C)C4C(=O)O)c3cccc(N)c3)c(O)c2n1 (stereo not drawn) [Example 35]
MIC [3]: 0.025 µg/mL (≈ 0.0442 µM)
MIC [4]: 1.56 µg/mL (≈ 2.76 µM)
MIC [5]: 1.56 µg/mL (≈ 2.76 µM)
MIC [6]: 1.56 µg/mL (≈ 2.76 µM)
MIC [7]: 6.25 µg/mL (≈ 11 µM)
MIC [8]: 0.78 µg/mL (≈ 1.38 µM)

CC1(C)SC2C(NC(=O)C(NC(=O)c3cnc4cc5c(cc4c3S)OCO5)c3cccc(N)c3)C(=O)N2C1C(=O)O (stereo not drawn) [Example 36]
MIC [3]: 0.39 µg/mL (≈ 0.655 µM)
MIC [4]: 6.25 µg/mL (≈ 10.5 µM)
MIC [5]: 3.13 µg/mL (≈ 5.25 µM)
MIC [6]: 0.78 µg/mL (≈ 1.31 µM)
MIC [7]: 12.5 µg/mL (≈ 21 µM)
MIC [8]: 6.25 µg/mL (≈ 10.5 µM)

CC1(C)SC2C(NC(=O)C(NC(=O)c3cnc4cccnc4c3S)c3cccc(N)c3)C(=O)N2C1C(=O)O (stereo not drawn) [Example 37]
MIC [3]: 0.05 µg/mL (≈ 0.0905 µM)
MIC [4]: 1.56 µg/mL (≈ 2.82 µM)
MIC [5]: 0.78 µg/mL (≈ 1.41 µM)
MIC [6]: 1.56 µg/mL (≈ 2.82 µM)
MIC [7]: 12.5 µg/mL (≈ 22.6 µM)
MIC [8]: 1.56 µg/mL (≈ 2.82 µM)

COc1ccc(C(NC(=O)c2cnc3ccccc3c2S)C(=O)NC2C(=O)N3C2SC(C)(C)C3C(=O)O)cc1 (stereo not drawn) [Example 38]
MIC [3]: 0.39 µg/mL (≈ 0.688 µM)
MIC [4]: 6.25 µg/mL (≈ 11 µM)
MIC [5]: 3.13 µg/mL (≈ 5.52 µM)
MIC [6]: 0.78 µg/mL (≈ 1.38 µM)
MIC [7]: 12.5 µg/mL (≈ 22.1 µM)
MIC [8]: 6.25 µg/mL (≈ 11 µM)

COc1cnc2c(O)c(C(=O)NC(C(=O)NC3C(=O)N4C3SC(C)(C)C4C(=O)O)c3cccc(N)c3)cnc2n1 (stereo not drawn) [Example 39]
MIC [3]: 0.025 µg/mL (≈ 0.044 µM)
MIC [4]: 0.78 µg/mL (≈ 1.37 µM)
MIC [5]: 0.78 µg/mL (≈ 1.37 µM)
MIC [6]: 0.78 µg/mL (≈ 1.37 µM)
MIC [7]: 6.25 µg/mL (≈ 11 µM)
MIC [8]: 0.78 µg/mL (≈ 1.37 µM)

CC1(C)SC2C(NC(=O)C(NC(=O)c3cnc4scnc4c3O)c3cccc(N)c3)C(=O)N2C1C(=O)O (stereo not drawn) [Example 40]
MIC [3]: 0.025 µg/mL (≈ 0.0461 µM)
MIC [4]: 1.56 µg/mL (≈ 2.88 µM)
MIC [5]: 1.56 µg/mL (≈ 2.88 µM)
MIC [6]: 1.56 µg/mL (≈ 2.88 µM)
MIC [7]: 6.25 µg/mL (≈ 11.5 µM)
MIC [8]: 1.56 µg/mL (≈ 2.88 µM)

COc1ccc(C(NC(=O)c2cnc3ccncc3c2O)C(=O)NC2C(=O)N3C2SC(C)(C)C3C(=O)O)cc1 (stereo not drawn) [Example 41]
MIC [3]: 0.39 µg/mL (≈ 0.707 µM)
MIC [4]: 12.5 µg/mL (≈ 22.7 µM)
MIC [5]: 3.13 µg/mL (≈ 5.67 µM)
MIC [6]: 1.56 µg/mL (≈ 2.83 µM)
MIC [7]: 12.5 µg/mL (≈ 22.7 µM)
MIC [8]: 3.13 µg/mL (≈ 5.67 µM)

CC1(C)SC2C(NC(=O)C(NC(=O)c3cnc4nc(N)ncc4c3O)c3cccc(N)c3)C(=O)N2C1C(=O)O (stereo not drawn) [Example 42]
MIC [3]: 0.05 µg/mL (≈ 0.0905 µM)
MIC [4]: 1.56 µg/mL (≈ 2.82 µM)
MIC [5]: 3.13 µg/mL (≈ 5.66 µM)
MIC [6]: 1.56 µg/mL (≈ 2.82 µM)
MIC [7]: 12.5 µg/mL (≈ 22.6 µM)
MIC [8]: 3.13 µg/mL (≈ 5.66 µM)

CNc1ncc2c(O)c(C(=O)NC(C(=O)NC3C(=O)N4C3SC(C)(C)C4C(=O)O)c3cccc(N)c3)cnc2n1 (stereo not drawn) [Example 43]
MIC [3]: 0.05 µg/mL (≈ 0.0882 µM)
MIC [4]: 1.56 µg/mL (≈ 2.75 µM)
MIC [5]: 3.13 µg/mL (≈ 5.52 µM)
MIC [6]: 1.56 µg/mL (≈ 2.75 µM)
MIC [7]: 12.5 µg/mL (≈ 22.1 µM)
MIC [8]: 3.13 µg/mL (≈ 5.52 µM)

COc1ccc(C(NC(=O)c2cnc3ccc(C)nc3c2O)C(=O)NC2C(=O)N3C2SC(C)(C)C3C(=O)O)cc1 (stereo not drawn) [Example 44]
MIC [3]: 0.05 µg/mL (≈ 0.0884 µM)
MIC [4]: 6.25 µg/mL (≈ 11.1 µM)
MIC [5]: 3.13 µg/mL (≈ 5.53 µM)
MIC [6]: 1.56 µg/mL (≈ 2.76 µM)
MIC [7]: 12.5 µg/mL (≈ 22.1 µM)
MIC [8]: 3.13 µg/mL (≈ 5.53 µM)

Cc1ccc2ncc(C(=O)NC(C(=O)NC3C(=O)N4C3SC(C)(C)C4C(=O)O)c3ccc(N(C)C)cc3)c(O)c2n1 (stereo not drawn) [Example 45]
MIC [3]: 0.1 µg/mL (≈ 0.173 µM)
MIC [4]: 6.25 µg/mL (≈ 10.8 µM)
MIC [5]: 1.56 µg/mL (≈ 2.7 µM)
MIC [6]: 1.56 µg/mL (≈ 2.7 µM)
MIC [7]: 6.25 µg/mL (≈ 10.8 µM)
MIC [8]: 3.13 µg/mL (≈ 5.41 µM)

CCOC(=O)Oc1c(C(=O)NC(C(=O)NC2C(=O)N3C2SC(C)(C)C3C(=O)O)c2ccc(OC)cc2)cnc2ccc(C)nc12 (stereo not drawn) [Example 46]
MIC [3]: 0.1 µg/mL (≈ 0.157 µM)
MIC [4]: 12.5 µg/mL (≈ 19.6 µM)
MIC [5]: 3.13 µg/mL (≈ 4.91 µM)
MIC [6]: 1.56 µg/mL (≈ 2.45 µM)
MIC [7]: 12.5 µg/mL (≈ 19.6 µM)
MIC [8]: 3.13 µg/mL (≈ 4.91 µM)

CC1(C)SC2C(NC(=O)C(NC(=O)c3cnc4cccnc4c3O)c3cccc(F)c3)C(=O)N2C1C(=O)O (stereo not drawn) [Example 47]
MIC [3]: 0.05 µg/mL (≈ 0.0927 µM)
MIC [4]: 1.56 µg/mL (≈ 2.89 µM)
MIC [5]: 1.56 µg/mL (≈ 2.89 µM)
MIC [6]: 1.56 µg/mL (≈ 2.89 µM)
MIC [7]: 12.5 µg/mL (≈ 23.2 µM)
MIC [8]: 1.56 µg/mL (≈ 2.89 µM)
